Patent US9855257B2, “4-alkynyl imidazole derivative and medicine comprising same as active ingredient” (KAKEN PHARMACEUTICAL CO., LTD., priority 2013, dated 2018)

Tests used:
rat EP4 receptor = target: T1, rat EP4 receptor (Rattus norvegicus, UniProt P43114); assay: Rat EP4 receptor antagonistic action by the reporter assay method; type: cell-based; conditions: COS-7 cells expressing rat EP4 receptor, CRE-LUC reporter, PGE2 1×10^−8 mol/L; geometric mean of three cases; read-out: Intensity of EP4 Receptor Antagonistic Activity IC50
T1 construct: its translated region was integrated into the expression vector pShooter (Invitrogen); expressed in transfected cells; host or cells: COS-7 cells (Cercopithecus aethiops kidney), transiently co-transfected with ratEP4-pShooter and a CRE-LUC reporter vector
T1 sequence (P43114 whole entry): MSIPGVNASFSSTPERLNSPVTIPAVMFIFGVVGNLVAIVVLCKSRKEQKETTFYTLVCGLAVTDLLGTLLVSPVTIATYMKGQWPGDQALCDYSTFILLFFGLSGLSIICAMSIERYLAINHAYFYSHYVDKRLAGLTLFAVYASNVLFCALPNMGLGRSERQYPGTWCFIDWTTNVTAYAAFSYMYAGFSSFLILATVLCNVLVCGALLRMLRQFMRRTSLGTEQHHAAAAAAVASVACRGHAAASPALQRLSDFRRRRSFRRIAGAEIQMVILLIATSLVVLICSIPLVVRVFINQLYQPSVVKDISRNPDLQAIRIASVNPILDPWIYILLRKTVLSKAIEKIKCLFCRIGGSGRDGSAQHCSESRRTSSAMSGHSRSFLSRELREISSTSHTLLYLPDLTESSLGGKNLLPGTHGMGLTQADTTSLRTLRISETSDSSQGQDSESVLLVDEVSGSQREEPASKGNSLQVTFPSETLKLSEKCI
Procedure: Test for Evaluating the Rat EP4 Receptor Antagonistic Action by the Reporter Assay Method
The first step was the cloning of the rat EP4 receptor. Total RNA was prepared from the kidney extracted from rats. With the total RNA used as a template, the rat EP4 receptor gene was cloned by RT-PCR and its translated region was integrated into the expression vector pShooter (Invitrogen) to prepare a rat EP4 receptor expressing vector (ratEP4-pShooter).
In the next step, rat EP4 receptor expressing cells for use in the reporter assay were prepared. COS-7 cells (derived from the kidney of Cercopithecus aethiops) were cultured in Dulbecco's Modified Eagle Medium (DMEM) (supplemented with 10% fetal bovine serum) in a 75-cm^2 cell culture flask. After the cells proliferated to a subconfluent state, the medium was removed and rinsed with phosphate buffered physiological saline (PBS). Trypsin-EDTA and a growth medium were used to recover the cells, which were then centrifuged. The supernatant was removed and the cells were suspended in DMEM. The cell suspension was seeded on a 96-well plate at a density of 2×10^4 cells/100 μL/well and cultured. The DMEM was mixed with Plus reagent, Lipofectamine 2000, the rat EP4 receptor expressing vector (ratEP4-pShooter) and a CRE-LUC reporter vector (CLONTECH) to prepare a transfection solution. Three hours after the seeding of the cells, 50 μL of the medium was removed and 50 μL/well of the transfection solution was added, followed by culture overnight. Negative control cells were prepared using pShooter in place of the receptor expressing vector. The cells were seeded on a 96-well plate for reporter assay and cultured.
The medium on the 96-well plate was removed and a test compound was added in an amount of 50 μL/well. After ca. 30-min culture, a PGE2 solution (2×10^−8 mol/L) was added in an amount of 50 μL/well (final concentration of PGE2: 1×10^−8 mol/L). As a PGE2-free control, there were provided wells to which a test medium had been added in an amount of 50 μL/well. About three hours later, the medium was removed and reporter assay was performed in accordance with the protocol accompanying the Steady-Glo Luciferase Assay System kit. Luminous intensity was measured with a microplate reader (Fusion-FPα, PerkinElmer) and EP4 receptor antagonistic activity (%) was determined by the following calculation formula: EP4 receptor antagonistic activity (%)=[1−(RLU(A,X)−RLU(0))/(RLU(PGE2)−RLU(0))]×100 RLU(A,X): Luminous intensity expressed in relative luminescence units (RLU) for the case where the test compound (A) X (mol/L) and PGE2 10^−8 mol/L were both added; RLU(PGE2): Luminous intensity for the case where only PGE2 10^−8 mol/L was added; RLU(0): Luminous intensity for the case where neither test compound nor PGE2 was added.
In addition, a dose-response curve was plotted from the EP4 receptor antagonistic activities at varying concentrations of each test compound and using the following approximation formula, the IC50 (the concentration of the test compound required to inhibit the PGE2 inducing activity by 50%) was calculated to determine the intensity of the compound's EP4 receptor antagonistic activity. The results are shown in Table 2: Y=Bottom+(Top−Bottom)/{1+10^(Log IC50−Log X)} Bottom: 0 Top: 100 X: Concentration of the test compound (mol/L) Y: EP4 receptor antagonistic activity (%)

[1] = system: Carrageenin Induced Paw Edema in Rats; assay: Anti-inflammatory effect on carrageenin induced paw edema in rats; type: in vivo, rat; conditions: Wistar male rats, oral 10 mg/5 mL/kg one hour before carrageenin, paw volume four hours after treatment; means of 5˜8 cases
Procedure: Test for Evaluating the Anti-Inflammatory Effect on Carrageenin Induced Paw Edema in Rats
The animals were Wistar male rats (7-week old). The paw volume of the right hind leg was measured with a paw volume meter (PLETHYSMOMETER, Ugo Basile Model 7141 or 7150). One hour after orally administering a test compound at a dose of 10 mg/5 mL/kg, a carrageenin treatment group was given a 1 w/v % carrageenin solution and a non-treatment group given distilled water, each administered subcutaneously to the footpad of the right hind leg at a dose of 0.1 mL. Four hours after the treatment with carrageenin (or distilled water), the paw volume was measured and the change in paw volume from the pre-treatment value was calculated. The anti-inflammatory effect of the test compound was confirmed using the percent paw edema suppression (see below) as an indicator. In the present experimental models, Cerecoxib (COX inhibitor already available on the market as an anti-inflammatory/analgesic agent) was used as a positive control.

[2] = system: Carrageenin Induced Hyperalgesia in Rats; assay: Analgesic effect on carrageenin induced hyperalgesia in rats; type: in vivo; conditions: Rattus norvegicus, 2 h; SD male rats, oral 10 mg/5 mL/kg six hours after carrageenin, nociceptive threshold (Randall-Selitto) two hours after administration; 5˜7 cases; read-out: Percent Effectiveness
Procedure: Test for Evaluating Analgesic Effect on Carrageenin Induced Hyperalgesia in Rats
The animals were SD male rats (5-week old). Before treatment with carrageenin (or distilled water), the rats were measured for nociceptive thresholds in their right hind leg by the Randall-Selitto method and divided into a carrageenin treatment group and a non-treatment group to provide uniformity in nociceptive threshold. The carrageenin treatment group was given a 1 w/v % carrageenin solution and the non-treatment group given distilled water, each administered subcutaneously to the footpad of the right hind leg at a dose of 0.1 mL. Five hours after the treatment, the nociceptive thresholds were measured and the individuals with decreased thresholds were selected and grouped such that there was no inter-group difference in threshold. Six hours after the treatment, each test compound was orally administered at a dose of 10 mg/5 mL/kg. The control group was administered 0.5% methylcellulose. Two hours after the administration of the test compound (8 hours after the treatment), the nociceptive threshold was measured. The animals in the test compound group that had nociceptive thresholds greater than [(the mean nociceptive threshold of the control group)+2×standard deviation] were found “effective animals” and the percent effectiveness of each compound was calculated.

[3] = system: Adjuvant Induced Arthritis in Rats; assay: Anti-inflammatory and analgesic effects on adjuvant induced arthritis in rats; type: in vivo, rat; set-up: Percent Effectiveness: scale not given: direction of the effect not stated beside the values; conditions: Lewis male rats, oral 0.3 mg/kg once a day, day 9 to day 17 after adjuvant; for Percent paw edema suppression: measured at day 18, means of 8˜10 cases; for Percent Effectiveness: pain threshold at day 18, 8˜10 cases
Procedure: Test for Evaluating Anti-Inflammatory and Analgesic Effects on Adjuvant Induced Arthritis in Rats
The animals were Lewis male rats (6-week old). An adjuvant solution (2 mg/mL) was administered intradermally to the footpad of the left hind leg of each animal at a dose of 0.1 mL to create an arthritis model. Paw volume was measured with a paw volume meter (PLETHYSMOMETER, Ugo Basile Model 7141). For evaluation of pain thresholds, a probe fitted to the sensor site of Pressure Application Measurement (PAM, Ugo Basile Model 38500) was used to turn the foot sole of a rat upward (dorsiflexion) until it gave an indication of pain or discomfort (vocalization) and the load being applied was measured. Eight days after the treatment with the adjuvant, the paw volume and pain threshold of each treated foot were measured and the animals were grouped for oral administration of each test compound (0.3 mg/kg) which was performed for nine days on a once-a-day schedule starting at day 9 and ending at day 17 after the treatment. At day 18 after the treatment, the paw volume and pain threshold of each […] foot were measured.
The anti-inflammatory effect of the test compound was confirmed using the percent paw edema suppression as an indicator. Percent paw edema suppression (%)=[(paw volume change in the control group−paw volume in each treatment group)/(paw volume change in the control group−paw volume change in the non-treatment group)]×100
As for the analgesic effect, the animals in the test compound group that had nociceptive thresholds greater than [(the mean nociceptive threshold of the control group)+2×standard deviation] were found “effective animals” and the percent effectiveness of each compound was calculated.

[4] = system: Monoiodoacetic Acid Induced Joint Pain in Rats; assay: Analgesic effect on monoiodoacetic acid induced joint pain in rats; type: in vivo, rat; conditions: SD male rats, oral 10 mg/kg three days after MIA treatment, measured two hours later with incapacitance tester
Procedure: Test for Evaluating Analgesic Effect on Monoiodoacetic Acid Induced Joint Pain in Rats
The animals were SD male rats (6 week-old). The right knee of each animal was treated intraarticularly with monoiodoacetic acid (MIA) to induce joint pain. Three days after the MIA treatment, a test compound (10 mg/kg) was administered orally and two hours later, the loads on the right and left hind legs were measured with an incapacitance tester (Linton).

SMILES: CC(C)(O)C#Cc1nc(Cl)n(CCOc2ccc(Cl)cc2)c1C(=O)NCC1CCC(C(=O)O)CC1 (stereo not drawn) [Compound 39]
- IC50 (rat EP4 receptor): 35 nM
- Percent paw edema suppression [1]: 22%
- responders at 10 mg/kg [2]: 100%

SMILES: COC(C)(C)C#Cc1nc(Cl)n(Cc2ccc(C(F)(F)F)cc2)c1C(=O)NC[C@H]1CC[C@H](C(=O)O)CC1 [Compound 10, trans-4-({2-Chloro-4-(3-methoxy-3-methyl-1-butyn-1-yl)-1-[4-(trifluormethyl)benzyl]-1H-imidazole-5-carboxamido}methyl)cyclohexanecarboxylic acid]
- IC50 (rat EP4 receptor): 10.9 nM
- Percent paw edema suppression [1]: 26%
- responders at 10 mg/kg [2]: 100%
- Percent paw edema suppression [3]: 82%
- Percent Effectiveness [3]: 78%
- suppression of right knee joint pain (ratio between the loads on the right and left hind legs) [4]: suppression of right knee joint pain was confirmed

SMILES: COC(C)(C)C#Cc1nc(Cl)n(Cc2ccc(C)cc2)c1C(=O)NC[C@H]1CC[C@H](C(=O)O)CC1 [Compound 22, trans-4-{[2-Chloro-4-(3-methoxy-3-methyl-1-butyn-1-yl)-1-(4-methylbenzyl)-1H-imidazole-5-carboxamido]methyl}cyclohexanecarboxylic acid]
- IC50 (rat EP4 receptor): 11.8 nM
- Percent paw edema suppression [1]: 19%
- responders at 10 mg/kg [2]: 83%
- Percent paw edema suppression [3]: 90%
- Percent Effectiveness [3]: 60%
- suppression of right knee joint pain (ratio between the loads on the right and left hind legs) [4]: suppression of right knee joint pain was confirmed

SMILES: COC(C)(C)C#Cc1nc(C2CC2)n(CCOc2ccc(Cl)cc2)c1C(=O)NCc1ccc(C(=O)O)cc1 [Compound 47, 4-({1-[2-(4-Chlorophenoxy)ethyl]-2-cyclopropyl-4-(3-methoxy-3-methyl-1-butyn-1-yl)-1H-imidazole-5-carboxamido}methyl)benzoic acid]
- IC50 (rat EP4 receptor): 34.7 nM
- Percent paw edema suppression [1]: 26%
- responders at 10 mg/kg [2]: 67%

SMILES: COC(C)(C)C#Cc1nc(Cl)n(CCOc2ccc(Cl)cc2)c1C(=O)NCC1CCC(C(=O)O)CC1 (stereo not drawn) [Compound 40]
- IC50 (rat EP4 receptor): 9.5 nM
- Percent paw edema suppression [1]: 29%
- responders at 10 mg/kg [2]: 100%

SMILES: COC(C)(C)C#Cc1nc(Cl)n(Cc2ccc(C(F)(F)F)cc2)c1C(=O)NC1(c2ccc(C(=O)O)cc2)CC1 [Compound 42, 4-(1-{2-Chloro-4-(3-methoxy-3-methyl-1-butyn-1-yl)-1-[4-(trifluoromethyl)benzyl]-1H-imidazole-5-carboxamido}cyclopropyl)benzoic acid]
- IC50 (rat EP4 receptor): 1.7 nM
- Percent paw edema suppression [1]: 28%
- responders at 10 mg/kg [2]: 83%
- Percent paw edema suppression [3]: 88%
- Percent Effectiveness [3]: 90%
- suppression of right knee joint pain (ratio between the loads on the right and left hind legs) [4]: suppression of right knee joint pain was confirmed
